Test [1] deals with A2780 ovarian cells. Description: A2780 ovarian cell proliferation assay in lipid reduced medium, with palmitate (MTT). The class given is cell-based. The following applies: Homo sapiens, A2780, 96 h; read-out: pIC50 A2780 Ovarian Cell, With Palmitate (converted). In short, it runs like this:
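In this palmitate-supplemented format, compound dilutions (30 μM down to 0.01 μM) are added to cells in lipid-reduced serum with 25 μM palmitate, 0.2% fatty-acid-free BSA and 0.25% ethanol. After four days (96 h) MTT absorbance at 544 nm is recorded and fitted by minimum sum of squares.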

Test [2] relates to A2780 ovarian cells. In words: A2780 ovarian cell proliferation assay in lipid reduced medium, without palmitate (MTT). The class given is cell-based. The following applies: Homo sapiens, A2780, 96 h; read-out: pIC50 A2780 Ovarian Cell, Without Palmitate (converted).
Test [3] addresses T1, hFASN enzyme (full length) (Homo sapiens, UniProt P49327).
T1 construct: 10 μL hFASN enzyme (full length, 300 ng, purified in house); made in house
In words: Fatty Acid Synthase (FASN) inhibition scintillation proximity assay. The test is classed as biochemical. The following applies: for inhibition at 10 µM: read-out: Human FASN % inhibition @ 10 μM, 10 μM test compound; for IC50: read-out: Human FASN pIC50 (converted). In short, it runs like this: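 Proximity read-out: hydrophobic ^3H-palmitate formed from ^3H-acetyl-CoA and malonyl-CoA binds streptavidin imaging beads, imaged at 610±20 nm at least 24 h after stopping. Enzyme was in-house purified full-length hFASN, 300 ng, in pH 7.5 phosphate/DTT buffer; compound series 30 μM down to 0.01 μM, normalized to controls, 4-parameter fit.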

T1 sequence (P49327 whole entry): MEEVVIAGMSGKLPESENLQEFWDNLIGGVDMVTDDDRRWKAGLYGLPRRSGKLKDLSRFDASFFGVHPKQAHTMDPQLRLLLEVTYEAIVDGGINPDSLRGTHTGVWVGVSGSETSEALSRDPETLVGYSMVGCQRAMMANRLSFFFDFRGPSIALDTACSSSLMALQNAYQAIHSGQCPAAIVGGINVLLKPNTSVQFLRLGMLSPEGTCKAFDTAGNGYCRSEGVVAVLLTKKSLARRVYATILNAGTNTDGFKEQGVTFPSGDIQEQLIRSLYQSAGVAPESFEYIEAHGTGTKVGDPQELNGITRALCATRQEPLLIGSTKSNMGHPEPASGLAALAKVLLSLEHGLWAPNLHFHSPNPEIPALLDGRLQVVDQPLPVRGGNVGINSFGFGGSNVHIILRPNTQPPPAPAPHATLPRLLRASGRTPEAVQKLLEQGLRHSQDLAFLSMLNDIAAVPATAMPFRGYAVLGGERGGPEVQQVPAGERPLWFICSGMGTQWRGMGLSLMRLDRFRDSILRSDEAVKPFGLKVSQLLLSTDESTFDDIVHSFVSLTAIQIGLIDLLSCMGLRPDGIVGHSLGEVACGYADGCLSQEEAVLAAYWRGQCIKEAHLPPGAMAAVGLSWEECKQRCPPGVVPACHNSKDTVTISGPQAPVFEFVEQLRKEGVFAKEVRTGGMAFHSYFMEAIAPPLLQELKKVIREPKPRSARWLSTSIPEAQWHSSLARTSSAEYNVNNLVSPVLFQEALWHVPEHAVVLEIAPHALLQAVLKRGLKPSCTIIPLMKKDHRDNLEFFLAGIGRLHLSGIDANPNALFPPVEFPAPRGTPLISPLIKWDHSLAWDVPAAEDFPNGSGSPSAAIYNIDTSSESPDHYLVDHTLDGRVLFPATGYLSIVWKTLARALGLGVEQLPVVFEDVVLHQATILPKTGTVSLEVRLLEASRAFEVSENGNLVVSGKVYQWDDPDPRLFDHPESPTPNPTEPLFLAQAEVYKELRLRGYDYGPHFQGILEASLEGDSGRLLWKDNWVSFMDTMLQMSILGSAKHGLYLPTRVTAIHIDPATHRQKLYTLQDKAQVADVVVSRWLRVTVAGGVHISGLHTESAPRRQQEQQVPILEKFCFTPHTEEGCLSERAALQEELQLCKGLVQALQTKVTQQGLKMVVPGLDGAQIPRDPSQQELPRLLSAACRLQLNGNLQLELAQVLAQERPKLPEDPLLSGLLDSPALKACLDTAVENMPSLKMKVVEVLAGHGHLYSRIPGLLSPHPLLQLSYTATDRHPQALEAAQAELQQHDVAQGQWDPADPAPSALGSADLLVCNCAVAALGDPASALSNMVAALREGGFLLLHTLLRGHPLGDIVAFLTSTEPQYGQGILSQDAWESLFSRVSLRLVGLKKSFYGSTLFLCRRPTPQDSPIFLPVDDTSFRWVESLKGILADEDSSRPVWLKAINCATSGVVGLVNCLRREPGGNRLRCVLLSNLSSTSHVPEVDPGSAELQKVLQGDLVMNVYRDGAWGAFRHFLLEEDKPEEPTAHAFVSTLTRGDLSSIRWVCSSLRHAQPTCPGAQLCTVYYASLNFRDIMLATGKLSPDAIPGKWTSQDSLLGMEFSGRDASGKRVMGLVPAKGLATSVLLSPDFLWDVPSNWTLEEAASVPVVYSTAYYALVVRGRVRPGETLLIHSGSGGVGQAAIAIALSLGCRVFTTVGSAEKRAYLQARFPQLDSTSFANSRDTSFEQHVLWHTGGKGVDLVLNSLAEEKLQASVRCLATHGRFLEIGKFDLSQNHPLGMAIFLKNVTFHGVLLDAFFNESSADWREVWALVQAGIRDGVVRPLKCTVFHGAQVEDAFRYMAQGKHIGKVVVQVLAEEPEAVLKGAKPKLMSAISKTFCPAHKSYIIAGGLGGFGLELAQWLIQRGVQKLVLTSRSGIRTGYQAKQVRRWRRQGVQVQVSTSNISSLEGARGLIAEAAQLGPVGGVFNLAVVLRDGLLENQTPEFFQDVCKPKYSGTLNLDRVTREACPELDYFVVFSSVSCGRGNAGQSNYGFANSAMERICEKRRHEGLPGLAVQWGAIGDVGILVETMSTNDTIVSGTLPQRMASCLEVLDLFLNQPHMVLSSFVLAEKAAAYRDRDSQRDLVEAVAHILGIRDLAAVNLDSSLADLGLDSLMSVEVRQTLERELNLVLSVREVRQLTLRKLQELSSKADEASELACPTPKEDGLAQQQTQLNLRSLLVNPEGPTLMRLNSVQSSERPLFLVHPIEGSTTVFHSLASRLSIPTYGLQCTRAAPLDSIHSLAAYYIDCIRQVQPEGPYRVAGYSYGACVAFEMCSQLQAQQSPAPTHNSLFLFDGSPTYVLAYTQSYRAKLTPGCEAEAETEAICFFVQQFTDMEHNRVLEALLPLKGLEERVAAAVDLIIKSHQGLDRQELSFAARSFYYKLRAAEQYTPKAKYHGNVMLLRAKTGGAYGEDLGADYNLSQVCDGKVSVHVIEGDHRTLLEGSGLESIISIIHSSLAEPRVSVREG

For the compound `Cc1cc(-c2ccc3nn(C)c(CO)c3c2)ccc1C1=NC2(CC2)C(=O)N1CC1CN(C(=O)C2CC2)C1` [compound 587, 6-{[1-(Cyclopropylcarbonyl)azetidin-3-yl]methyl}-5-{4-[3-(hydroxymethyl)-2-methyl-2H-indazol-5-yl]-2-methylphenyl}-4,6-diazaspiro[2.4]hept-4-en-7-one], the IC50 in test [1] was > 10 µM; in test [2] it was ~8.51 µM; in test [3], 3.31 µM. Also, the inhibition at 10 µM in test [3] is 70%.

With `COCc1c2cc(-c3ccc(C4=NC5(CC5)C(=O)N4CC4CN(C(=O)C5CC5)C4)c(C)c3)ccc2nn1C` [compound 589, 6-{[1-(Cyclopropylcarbonyl)azetidin-3-yl]methyl}-5-{4-[3-(methoxymethyl)-2-methyl-2H-indazol-5-yl]-2-methylphenyl}-4,6-diazaspiro[2.4]hept-4-en-7-one], the IC50 is > 10 µM in test [1], 5.62 µM in test [2] and 9.55 µM in test [3]. Also, the inhibition at 10 µM in test [3] worked out at 52%.

In the case of `Cc1cc(-c2ccc3c(Cl)nn(C)c3c2)ccc1C1=NC2(CC2)C(=O)N1CC1CN(C(=O)C2CC2)C1` [compound 590, 5-[4-(3-Chloro-1-methyl-1H-indazol-6-yl)-2-methylphenyl]-6-{[1-(cyclopropylcarbonyl)azetidin-3-yl]methyl}-4,6-diazaspiro[2.4]hept-4-en-7-one], the IC50 in test [1] is > 10 µM; in test [2], 3.31 µM; in test [3] it was 1.74 µM. In test [3], the inhibition at 10 µM came out at 80%.

As to `O=C(C1CC1)N1CC(CN2C(=O)C3(CC3)N=C2c2ccc(-c3cc(Cl)c4cn[nH]c4c3)cc2F)C1` [compound 592, 5-[4-(4-Chloro-1H-indazol-6-yl)-2-fluorophenyl]-6-{[1-(cyclopropylcarbonyl)azetidin-3-yl]methyl}-4,6-diazaspiro[2.4]hept-4-en-7-one], the values for the IC50 in test [1], in test [2] and in test [3] were > 10 µM, 5.25 µM and 2.95 µM, respectively. In addition, in test [3], the inhibition at 10 µM came to 70%.

As for `Cc1cc(-c2ccc(C3(C#N)CC3)cc2F)ccc1C1=NC2(CC2)C(=O)N1CC1CN(C(=O)C2(C)CC2)C1` [compound 593], the IC50 was 9.55 µM in test [1], 6.76 µM in test [2] and 7.08 µM in test [3]. For the same compound, the inhibition at 10 µM in test [3] came to 56%.

`Cc1cc(-c2ccc3ccc(Br)cc3n2)ccc1C1=NC2(CC2)C(=O)N1CC1CN(C(=O)C2(C)CC2)C1` [compound 595, 5-[4-(7-Bromoquinolin-2-yl)-2-methylphenyl]-6-({1-[(1-methylcyclopropyl)carbonyl]azetidin-3-yl}methyl)-4,6-diazaspiro[2.4]hept-4-en-7-one]: the figures for the IC50 in test [1], in test [2] and in test [3] were 6.61 µM, 3.24 µM and 1.35 µM, respectively. For the same compound, in test [3], the inhibition at 10 µM was 83%.

As to `Cc1cc(Cl)c2ccc(-c3ccc(C4=NC5(CC5)C(=O)N4CC4CN(C(=O)C5(C)CC5)C4)c(C)c3)cc2n1` [compound 597, 5-[4-(4-Chloro-2-methylquinolin-7-yl)-2-methylphenyl]-6-({1-[(1-methylcyclopropyl)carbonyl]azetidin-3-yl}methyl)-4,6-diazaspiro[2.4]hept-4-en-7-one], the figures for the IC50 in test [1], in test [2] and in test [3] were 4.37 µM, 3.63 µM and ~4.27 µM, respectively. The inhibition at 10 µM in test [3] turned out to be 65%.

Turning to `Cc1ccc2c(-c3ccc(C4=NC5(CC5)C(=O)N4CC4CN(C(=O)C5(C)CC5)C4)c(C)c3)cccc2n1` [compound 603, 6-({1-[(1-Methylcyclopropyl)carbonyl]azetidin-3-yl}methyl)-5-[2-methyl-4-(2-methylquinolin-5-yl)phenyl]-4,6-diazaspiro[2.4]hept-4-en-7-one], the IC50 is > 10 µM in test [1], ~3.31 µM in test [2] and 1.15 µM in test [3]. For the same compound, in test [3], the inhibition at 10 µM is 87%.

`Cc1cc(-c2cc(C)c3ccc(Br)cc3n2)ccc1C1=NC2(CC2)C(=O)N1CC1CN(C(=O)C2(C)CC2)C1` [compound 605, 5-[4-(7-Bromo-4-methylquinolin-2-yl)-2-methylphenyl]-6-({1-[(1-methylcyclopropyl)carbonyl]azetidin-3-yl}methyl)-4,6-diazaspiro[2.4]hept-4-en-7-one]: the IC50 is 6.31 µM in test [1], 4.79 µM in test [2] and 6.61 µM in test [3]. For the same compound, the inhibition at 10 µM in test [3] amounted to 62%.

In the case of `Cc1cc(-c2ccc3nn(C)c(C#N)c3c2)ccc1C1=NC2(CC2)C(=O)N1CC1CN(C(=O)C2CC2)C1` [compound 610], the IC50 in test [1] is 4.57 µM; in test [2], 2.88 µM; in test [3] it was 1.05 µM. For the same compound, the inhibition at 10 µM in test [3] worked out at 87%.

For the compound `N#Cc1ccc2ccc(-c3ccc(C4=NC5(CC5)C(=O)N4CC4CN(C(=O)C5CC5)C4)cc3)cc2n1` [compound 611, 7-[4-(6-{[1-(Cyclopropylcarbonyl)azetidin-3-yl]methyl}-7-oxo-4,6-diazaspiro[2.4]hept-4-en-5-yl)phenyl]quinolin-2-carbonitrile], the figures for the IC50 in test [1], in test [2] and in test [3] were > 10 µM, > 10 µM and ~10 µM, respectively. Also, the inhibition at 10 µM in test [3] worked out at 46%.

Turning to `Cn1ncc2cc(-c3ccc(C4=NC5(CC5)C(=O)N4CC4CN(C(=O)C5CC5)C4)cc3Cl)ccc21` [compound 612, 5-[3-Chloro-4-(1-methyl-1H-indazol-5-yl)phenyl]-6-{[1-(cyclopropylcarbonyl)azetidin-3-yl]methyk}-4,6-diazaspiro[2.4]hept-4-en-7-one], the IC50 in test [1] is > 10 µM; in test [2], 3.8 µM; in test [3], 2.04 µM. Besides, the inhibition at 10 µM in test [3] was found to be 74%.

As to `Cc1cc(-c2ccc3ccc(C(F)(F)F)nc3c2)ccc1C1=NC2(CC2)C(=O)N1CC1CN(C(=O)C2(C)CC2)C1` [compound 620, 6-({1-[(1-Methylcyclopropyl)carbonyl]azetidin-3-yl}methyl)-5-{2-methyl-4-[2-(trifluoromethyl)quinolin-7-yl]phenyl}-4,6-diazaspiro[2.4]hept-4-en-7-one], the IC50 was > 10 µM in test [1], ~4.79 µM in test [2] and 3.98 µM in test [3]. The inhibition at 10 µM in test [3] is 71%.

Regarding `Cc1cc(-c2ccc3c(C)cc(Cl)nc3c2)ccc1C1=NC2(CC2)C(=O)N1CC1CN(C(=O)C2(C)CC2)C1` [compound 624, 5-[4-(2-Chloro-4-methylquinolin-7-yl)-2-methylphenyl]-6-({1-[(1-methylcyclopropyl)carbonyl]azetidin-3-yl}methyl)-4,6-diazaspiro[2.4]hept-4-en-7-one], the IC50 is 6.61 µM in test [1], 1.45 µM in test [2] and 2.24 µM in test [3]. For the same compound, the inhibition at 10 µM in test [3] worked out at 76%.

As for `Cc1cc(-c2cc(Cl)c3cn[nH]c3c2)ccc1C1=NC2(CC2)C(=O)N1CC1CN(C(=O)C2CC2)C1` [compound 629, 5-[4-(4-Chloro-1H-indazol-6-yl)-2-methylphenyl]-6-{[1-(cyclopropylcarbonyl)azetidin-3-yl]methyl}-4,6-diazaspiro[2.4]hept-4-en-7-one], the IC50 in test [1] is > 10 µM; in test [2] it was 7.76 µM; in test [3], 7.41 µM. The inhibition at 10 µM in test [3] was 55%.

Consider `O=C(C1CC1)N1CC(CN2C(=O)C3(CC3)N=C2c2ccc(-c3cc(C(F)(F)F)ccc3F)cc2F)C1` [compound 630, 6-{[1-(Cyclopropylcarbonyl)azetidin-3-yl]methyl}-5-[2′,3-difluoro-5′-(trifluoromethyl)biphenyl-4-yl]-4,6-diazaspiro[2.4]hept-4-en-7-one], for which the IC50 in test [1] was > 10 µM; in test [2] it was 4.07 µM; in test [3], 3.16 µM. In addition, the inhibition at 10 µM in test [3] was determined as 67%.

For `CC(C)S(=O)(=O)c1cccc(-c2ccc(C3=NC4(CC4)C(=O)N3CC3CN(C(=O)C4CC4)C3)c(F)c2)c1` [compound 631, 6-{[1-(Cyclopropylcarbonyl)azetidin-3-yl]methyl}-5-{3-fluoro-3′-[(1-methylethyl)sulfonyl]biphenyl-4-yl}-4,6-diazaspiro[2.4]hept-4-en-7-one], the IC50 in test [1] was > 10 µM; in test [2], 5.89 µM; in test [3], 8.51 µM. Also, in test [3], the inhibition at 10 µM worked out at 47%.

On to `CC(C)S(=O)(=O)c1cccc(-c2ccc(C3=NC4(CC4)C(=O)N3C[C@@H]3CCN(C(=O)C4CC4)C3)c(F)c2)c1` [compound 632, 6-{[(3R)-1-(Cyclopropylcarbonyl)pyrrolidin-3-yl]methyl}-5-{3-fluoro-3′-[(1-methylethyl)sulfonyl]biphenyl-4-yl}-4,6-diazaspiro[2.4]hept-4-en-7-one], for which the IC50 in test [1] was > 10 µM; in test [2], ~2.4 µM; in test [3], 2.75 µM. The inhibition at 10 µM in test [3] turned out to be 70%.

`Cc1cc(-c2cccc(S(C)(=O)=O)c2)ccc1C1=NC2(CC2)C(=O)N1C[C@@H]1CCN(C(=O)C2CC2)C1` [compound 633, 6-{[(3R)-1-(Cyclopropylcarbonyl)pyrrolidin-3-yl]methyl}-5-[3-methyl-3′-(methylsulfonyl)biphenyl-4-yl]-4,6-diazaspiro[2.4]hept-4-en-7-one]: the IC50 was > 10 µM in test [1], 5.25 µM in test [2] and 8.32 µM in test [3]. The inhibition at 10 µM in test [3] was found to be 56%.

In general, inhibition refers to the percentage by which the read-out fell short of the control.

Values taken from US10077261B2, “Imidazolin-5-one derivative useful as FASN inhibitors for the treatment of cancer” (Janssen Pharmaceutica NV, priority 2012, dated 2018).
